Data set [1] concerns Human immunodeficiency virus 1. As to the kind of experiment: Antiviral activity against HIV-1 infected in MT4 cells assessed as reduction in virus-induced cytopathic effect preincubated for 1 hr followed by viral infection and measured after 5 days by XTT assay. The class given is functional, organism-based. The conditions noted are these: Human immunodeficiency virus 1, MT4.

Data set [2] can be described thus: Cytotoxicity against in human MT4 cells after 5 days by XTT assay. The conditions noted are these: time 5 day. The data set is classed as cell-based.
For data set [3], the target named is T1, Lysosomal protective protein (Homo sapiens) (UniProt P10619).
T1 sequence (whole entry): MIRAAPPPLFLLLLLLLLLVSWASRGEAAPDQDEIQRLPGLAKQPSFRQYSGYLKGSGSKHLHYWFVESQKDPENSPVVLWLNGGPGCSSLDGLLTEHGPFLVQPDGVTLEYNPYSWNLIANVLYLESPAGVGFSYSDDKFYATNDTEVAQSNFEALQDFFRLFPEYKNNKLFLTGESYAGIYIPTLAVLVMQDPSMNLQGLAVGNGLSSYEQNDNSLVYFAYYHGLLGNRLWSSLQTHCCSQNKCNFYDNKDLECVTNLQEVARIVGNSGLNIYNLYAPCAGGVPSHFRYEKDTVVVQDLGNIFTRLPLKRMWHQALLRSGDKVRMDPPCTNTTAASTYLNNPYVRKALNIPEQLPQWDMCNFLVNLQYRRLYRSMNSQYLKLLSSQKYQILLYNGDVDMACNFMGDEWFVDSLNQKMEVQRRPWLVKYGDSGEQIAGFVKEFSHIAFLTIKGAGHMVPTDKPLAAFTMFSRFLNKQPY
The data set can be described thus: Substrate activity at cathepsin A (unknown origin) at 30 uM after 30 mins.

The nature of data set [4]: Drug uptake in human CCRF-CEM cells assessed as intracellular intact prodrug level at 50 uM after 45 mins by ECHO-MS analysis. The class given is ADME, cell-based. The conditions noted are these: 0.75 h.
The nature of data set [5]: Drug uptake in human CCRF-CEM cells assessed as released tenofovir level at 50 uM after 45 mins by ECHO-MS analysis. The conditions noted are these: 0.75 h. The class given is ADME, cell-based.
Data set [6] is described as follows: Drug metabolism assessed as M1 metabolite formation. The class given is ADME.
The nature of data set [7]: Drug metabolism assessed as M5 metabolite formation. The class given is ADME.
A short description of data set [8]: Drug metabolism assessed as M9 metabolite formation. The data set is classed as ADME.
Data set [9] is described as follows: Drug metabolism assessed as M11 metabolite formation. The class given is ADME.
Data set [10] can be described thus: Drug metabolism assessed as M12 metabolite formation. The class given is ADME.
Data set [11] in a line: Solubility of compound in water at 25 uM after 24 hrs by HPLC analysis. The data set is classed as physicochemical.
A short description of data set [12]: Chemical stability of compound in pH 10 NaOH-glycin buffer at 25 uM after 24 hrs by HPLC analysis. The class given is physicochemical. The conditions noted are these: pH 10, 24 h.
Data set [13] is described as follows: Chemical stability of compound in pH 1.5 NaCl-HCl buffer at 25 uM after 24 hrs by HPLC analysis. The class given is physicochemical. The conditions noted are these: pH 1.5, 24 h.
A short description of data set [14]: Chemical stability of compound in pH 4.5 citrate buffer at 25 uM after 24 hrs by HPLC analysis. The data set is classed as physicochemical. The conditions noted are these: pH 4.5, 24 h.
Data set [15] in a line: Stability of compound in pooled human plasma assessed as half life at 5 uM measured for 120 to 240 mins by ECHO-MS analysis. The data set is classed as ADME, cell-free. The conditions noted are these: time 120-240 min.
Data set [16] can be described thus: Stability of compound in pooled human plasma assessed as compound remaining at 5 uM measured for 120 to 240 mins by ECHO-MS analysis. The data set is classed as ADME, cell-free. The conditions noted are these: time 120-240 min, read-out: Stability.
Data set [17] is described as follows: Stability of compound in pooled human hepatic microsomes assessed as compound remaining at 5 uM measured upto 30 mins in presence of NADPH by ECHO-MS analysis. The class given is ADME, Microsome. The conditions noted are these: pooled liver microsomes, read-out: Stability.
Data set [18] in a line: Drug metabolism in human liver microsomes assessed as formation of metabolite 1. The class given is ADME, Microsome.
Data set [19] can be described thus: Selectivity index, ratio of CC50 for human MT-4 cells to EC50 for HIV-1 infected in MT-4 cells. The class given is toxicity, cell-based. The conditions noted are these: read-out: Ratio CC50/EC50.

Molecules are shown by their SMILES. Converted amounts (≈) assume the structure as drawn.

As for `CC(C)OC(=O)[C@H](C)N[P@@](=O)(CO[C@H](C)Cn1cnc2c(N)ncnc21)Oc1ccc(C[C@H](NCCCc2ccccc2)C(=O)CC2CCCC2)cc1`, the EC50 in data set [1] is 9.6 nM. This molecule also gave a CC50 at 120 h in data set [2] of 7.3 µM. In [3], this molecule gave an Activity of 10.2 pmol/min/mg. In addition, the Drug uptake in data set [4] was 266.22 pmol; in [5], 50.12 pmol. Also, the Drug metabolism entry in [6], in data set [7], in data set [8], in data set [9] and in data set [10] was “Metabolite_Detected” each time.
Take `CC(C)OC(=O)[C@H](C)N[P@](=O)(CO[C@H](C)Cn1cnc2c(N)ncnc21)Oc1ccc(C[C@H](NC(=O)OCc2ccccc2)C(=O)OC2CCCC2)cc1`: the EC50 in data set [1] was determined as 0.07 nM. This molecule also yielded a CC50 at 120 h in data set [2] of 10 µM. This molecule had a solubility at 24 h, 25 µM in data set [11] of 53.5 µM (≈ 41 µg/mL). The Stability entry is recorded as “Unstable” in data set [12], “Unstable” in data set [13] and “Stable” in data set [14]. Besides, in [15], the half-life at 5 µM stood at 9.63 h. Moreover, the remaining at 5 µM in [16] came out at 75%. In addition, in data set [17], the remaining at 0.5 h, 5 µM stood at 0.01%. The Drug metabolism result in [18] is listed as “Metabolite_Detected”. Also, the selectivity ratio in data set [19] came to 143000. The figures for the Drug uptake in [4] and in data set [5] were 0.19 pmol and 73.7 pmol, respectively.

For the origin of these results see ChEMBL document CHEMBL4840358, “Discovery of Modified Amidate (ProTide) Prodrugs of Tenofovir with Enhanced Antiviral Properties” (J Med Chem, 2021).
